Laboratory results published in US9796711B2, “Substituted pyrazolo[3,4-b]pyridin-6-carboxylic acids and method of use” (AbbVie S.àr.l., priority 2015, dated 2017).

Columns and labels:
ΔF508-CFTR [1] = biological target: T1, ΔF508-CFTR (Homo sapiens, UniProt P13569, DEL508-508); experiment: CFTR cell surface levels using HRP-tagged ΔF508-CFTR expressing CFBE cells, in the presence of a co-corrector; type: cell-based; conditions: HRP-tagged ΔF508-CFTR expressing CFBE cells, in the presence of 3 μM co-corrector; for EC50: read-out: EC50
T1 construct: host or cells: CFBE41o-, doxycycline-inducible
How it was run: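 Cells were seeded with 0.5 μg/mL doxycycline and held 68 h at 37 °C. Test compounds plus 3 μM co-corrector (final 0.1% DMSO) were then added for 20 h at 33 °C. Washed cells received HRP substrate, and luminescence was normalized between DMSO and 3 μM co-corrector controls.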

ΔF508-CFTR [2] = biological target: T1, ΔF508-CFTR; experiment: CFTR cell surface levels using HRP-tagged ΔF508-CFTR expressing CFBE cells, intrinsic corrector capacity; type: cell-based; conditions: HRP-tagged ΔF508-CFTR CFBE41o- cells, compounds alone (intrinsic corrector capacity), 20 hours at 33° C.; for % Activation: positive control 3 μM corrector; for EC50: read-out: EC50
How it was run: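 Here the cells express ΔF508-CFTR with horseradish peroxidase inserted in extracellular loop 4, so only rescued channel at the surface gives luminescent signal. Compounds act on their own, 20 h at the reduced temperature of 33 °C; values are percent activity relative to DMSO and a 3 μM corrector.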

T1 sequence (P13569 with tags, fused parts or gaps DEL508-508): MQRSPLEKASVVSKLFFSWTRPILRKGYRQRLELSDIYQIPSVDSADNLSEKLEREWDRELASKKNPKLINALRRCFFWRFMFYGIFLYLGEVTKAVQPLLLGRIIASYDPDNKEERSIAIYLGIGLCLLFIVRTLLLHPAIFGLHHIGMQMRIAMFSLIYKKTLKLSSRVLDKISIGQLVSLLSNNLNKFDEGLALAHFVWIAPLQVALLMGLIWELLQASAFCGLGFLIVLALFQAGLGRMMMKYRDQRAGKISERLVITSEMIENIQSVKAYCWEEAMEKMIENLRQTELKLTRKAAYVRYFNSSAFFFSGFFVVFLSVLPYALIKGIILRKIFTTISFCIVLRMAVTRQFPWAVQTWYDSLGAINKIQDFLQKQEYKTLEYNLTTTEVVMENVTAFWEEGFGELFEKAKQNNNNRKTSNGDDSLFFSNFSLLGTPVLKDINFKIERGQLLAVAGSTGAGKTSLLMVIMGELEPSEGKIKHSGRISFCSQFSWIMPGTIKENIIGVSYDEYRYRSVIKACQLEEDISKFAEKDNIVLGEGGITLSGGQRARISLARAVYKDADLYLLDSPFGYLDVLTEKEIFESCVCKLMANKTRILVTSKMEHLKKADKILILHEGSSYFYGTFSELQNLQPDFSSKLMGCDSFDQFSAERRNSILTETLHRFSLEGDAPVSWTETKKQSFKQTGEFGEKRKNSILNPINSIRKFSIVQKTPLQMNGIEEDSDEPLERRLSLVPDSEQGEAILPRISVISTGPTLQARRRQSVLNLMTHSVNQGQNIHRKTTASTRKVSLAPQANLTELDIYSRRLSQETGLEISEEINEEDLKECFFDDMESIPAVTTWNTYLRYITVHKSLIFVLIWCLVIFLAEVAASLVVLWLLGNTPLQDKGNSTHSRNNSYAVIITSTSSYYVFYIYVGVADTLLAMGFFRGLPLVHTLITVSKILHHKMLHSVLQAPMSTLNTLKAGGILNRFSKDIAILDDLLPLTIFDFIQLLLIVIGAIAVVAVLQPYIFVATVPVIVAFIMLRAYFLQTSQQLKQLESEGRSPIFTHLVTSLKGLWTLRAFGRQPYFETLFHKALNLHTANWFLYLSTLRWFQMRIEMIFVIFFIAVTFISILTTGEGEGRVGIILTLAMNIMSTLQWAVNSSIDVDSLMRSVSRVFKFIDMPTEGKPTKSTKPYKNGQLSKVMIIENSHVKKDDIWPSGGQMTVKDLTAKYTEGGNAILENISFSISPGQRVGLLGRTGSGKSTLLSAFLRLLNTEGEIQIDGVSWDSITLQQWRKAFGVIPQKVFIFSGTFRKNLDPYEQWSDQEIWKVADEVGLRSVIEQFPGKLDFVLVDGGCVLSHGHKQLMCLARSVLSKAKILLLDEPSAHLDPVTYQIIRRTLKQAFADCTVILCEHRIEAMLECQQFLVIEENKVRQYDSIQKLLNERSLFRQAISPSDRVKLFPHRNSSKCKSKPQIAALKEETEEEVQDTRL

Row | SMILES | % Activation (ΔF508-CFTR [1]) | EC50 (ΔF508-CFTR [1]) | % Activation (ΔF508-CFTR [2]) | EC50 (ΔF508-CFTR [2])
1 | NC(=O)c1nn(-c2ccccc2)c2nc(C(=O)O)cc(-c3ccc(N4CCOCC4)cc3)c12 [compound 64, 3-carbamoyl-4-[4-(morpholin-4-yl)phenyl]-1-phenyl-1H-pyrazolo[3,4-b]pyridine-6-carboxylic acid] | 113.3% | > 10000 nM | 3.754% | > 10000 nM
2 | Cc1nn(C2CCCCC2)c2nc(C(=O)O)cc(-c3cnc(N4CCOCC4)nc3)c12 [compound 65, 1-cyclohexyl-3-methyl-4-[2-(morpholin-4-yl)pyrimidin-5-yl]-1H-pyrazolo[3,4-b]pyridine-6-carboxylic acid] | 258.2% | 2310 nM | 103.02% | 3340 nM
3 | Cc1nn(-c2ccccc2)c2nc(C(=O)O)cc(-c3ccc(N4CCOCC4)c(Br)c3)c12 [compound 66, 4-[3-bromo-4-(morpholin-4-yl)phenyl]-3-methyl-1-phenyl-1H-pyrazolo[3,4-b]pyridine-6-carboxylic acid] | 131.3% | > 10000 nM | 13.06% | > 10000 nM
4 | CC(C)c1nn(C2CCCC2)c2nc(C(=O)O)cc(-c3cnc(N(C)C)nc3)c12 [compound 67, 1-cyclopentyl-4-[2-(dimethylamino)pyrimidin-5-yl]-3-(propan-2-yl)-1H-pyrazolo[3,4-b]pyridine-6-carboxylic acid] | 280.35% | 1260 nM | 117.6% | 1590 nM
5 | CC(C)c1nn(C2CCCOC2)c2nc(C(=O)O)cc(-c3ccc(N4CCOCC4)cc3)c12 (stereo not drawn) [compound 68, 4-[4-(morpholin-4-yl)phenyl]-1-(oxan-3-yl)-3-(propan-2-yl)-1H-pyrazolo[3,4-b]pyridine-6-carboxylic acid] | 274.9% | 1390 nM | 106.65% | 1740 nM
6 | CC(C)c1nn(C2CCCC2)c2nc(C(=O)O)cc(-c3ccc(N4CCOCC4)cc3)c12 [compound 69, 1-cyclopentyl-4-[4-(morpholin-4-yl)phenyl]-3-(propan-2-yl)-1H-pyrazolo[3,4-b]pyridine-6-carboxylic acid] | 366.8% | 993 nM | 150.25% | 970 nM
7 | COC(=O)N1CCN(c2ccc(-c3cc(C(=O)O)nc4c3c(C)nn4-c3ccccc3)cc2)CC1 [compound 70, 4-{4-[4-(methoxycarbonyl)piperazin-1-yl]phenyl}-3-methyl-1-phenyl-1H-pyrazolo[3,4-b]pyridine-6-carboxylic acid] | 355.6% | 649 nM | 160.8% | 910 nM
8 | CC(=O)N1CCC(n2nc(C(C)C)c3c(-c4ccc(N5CCOCC5)cc4)cc(C(=O)O)nc32)CC1 [compound 71, 1-(1-acetylpiperidin-4-yl)-4-[4-(morpholin-4-yl)phenyl]-3-(propan-2-yl)-1H-pyrazolo[3,4-b]pyridine-6-carboxylic acid] | 126.8% | > 10000 nM | 17.23% | > 10000 nM
9 | Cc1nn(-c2ccccc2)c2nc(C(=O)O)cc(-c3ccc(N4CC(N(C)C)C4)cc3)c12 [compound 72] | 308.1% | 3340 nM | 91.87% | 2250 nM
10 | Cc1nn(-c2ccccc2)c2nc(C(=O)O)cc(-c3ccc(N4CC(C)(C)C4)cc3)c12 [compound 73, 4-[4-(3,3-dimethylazetidin-1-yl)phenyl]-3-methyl-1-phenyl-1H-pyrazolo[3,4-b]pyridine-6-carboxylic acid] | 303.9% | 3250 nM | 110.1% | 3170 nM
11 | Cc1nn(C2CCCCC2)c2nc(C(=O)O)cc(-c3ccc(N4CCOCC4)nc3)c12 [compound 74, 1-cyclohexyl-3-methyl-4-[6-(morpholin-4-yl)pyridin-3-yl]-1H-pyrazolo[3,4-b]pyridine-6-carboxylic acid] | 257.2% | 1480 nM | 116.7% | 2560 nM
12 | Cc1nn(C2CCCCC2)c2nc(C(=O)O)cc(-c3cnc(N(C)C)nc3)c12 [compound 75, 1-cyclohexyl-4-[2-(dimethylamino)pyrimidin-5-yl]-3-methyl-1H-pyrazolo[3,4-b]pyridine-6-carboxylic acid] | 254% | 1150 nM | 117.1% | 3130 nM
13 | CC(C)(C)OC(=O)N1CCCC1c1nn(-c2ccccc2)c2nc(C(=O)O)cc(-c3ccc(N4CCOCC4)cc3)c12 (stereo not drawn) [compound 76] | 244.2% | 430 nM | 117.9% | 835 nM
14 | CC(C)c1nn(C2CCCC2)c2nc(C(=O)O)cc(-c3ccc(N4CCOCC4)nc3)c12 [compound 77, 1-cyclopentyl-4-[6-(morpholin-4-yl)pyridin-3-yl]-3-(propan-2-yl)-1H-pyrazolo[3,4-b]pyridine-6-carboxylic acid] | 343.4% | 1110 nM | 139.5% | 1170 nM
15 | CC(=O)N1CC(c2nn(-c3ccccc3)c3nc(C(=O)O)cc(-c4ccc(N5CCOCC5)cc4)c23)C1 [compound 78, 3-(1-acetylazetidin-3-yl)-4-[4-(morpholin-4-yl)phenyl]-1-phenyl-1H-pyrazolo[3,4-b]pyridine-6-carboxylic acid] | 132% | > 10000 nM | 10.784% | > 10000 nM
16 | CC(C)c1nn(-c2ccccc2)c2nc(C(=O)O)cc(-c3cnc(N4CCOCC4)nc3)c12 [compound 79, 4-[2-(morpholin-4-yl)pyrimidin-5-yl]-1-phenyl-3-(propan-2-yl)-1H-pyrazolo[3,4-b]pyridine-6-carboxylic acid] | 256.45% | 5280 nM | 195.9% | 697 nM
17 | CC(C)c1nn(C2CCCCC2)c2nc(C(=O)O)cc(-c3cnc(N4CCOCC4)nc3)c12 [compound 80, 1-cyclohexyl-4-[2-(morpholin-4-yl)pyrimidin-5-yl]-3-(propan-2-yl)-1H-pyrazolo[3,4-b]pyridine-6-carboxylic acid] | 341.92% | 2930 nM | 184.8% | 611 nM
18 | CC(C)c1nn(C2CCCCC2)c2nc(C(=O)O)cc(-c3ccc(N4CCOCC4)nc3)c12 [compound 81, 1-cyclohexyl-4-[6-(morpholin-4-yl)pyridin-3-yl]-3-(propan-2-yl)-1H-pyrazolo[3,4-b]pyridine-6-carboxylic acid] | 398.25% | 570 nM | 193.6% | 744 nM
19 | Cc1nn(-c2ccccc2)c2nc(C(=O)O)cc(-c3ccc(N4CCN(CCC(F)(F)F)CC4)cc3)c12 [compound 82, 3-methyl-1-phenyl-4-{4-[4-(3,3,3-trifluoropropyl)piperazin-1-yl]phenyl}-1H-pyrazolo[3,4-b]pyridine-6-carboxylic acid] | 335.65% | 971 nM | 135.95% | 1010 nM
20 | CC(C)c1nn(C2CCCC2)c2nc(C(=O)O)cc(-c3ccc(N(C)C)nc3)c12 [compound 83, 1-cyclopentyl-4-[6-(dimethylamino)pyridin-3-yl]-3-(propan-2-yl)-1H-pyrazolo[3,4-b]pyridine-6-carboxylic acid] | 332.65% | 1050 nM | 142.25% | 1470 nM
21 | CC(C)c1nn(-c2cccc(N(C)C)c2)c2nc(C(=O)O)cc(-c3cnc(N4CCOCC4)nc3)c12 [compound 84, 1-[3-(dimethylamino)phenyl]-4-[2-(morpholin-4-yl)pyrimidin-5-yl]-3-(propan-2-yl)-1H-pyrazolo[3,4-b]pyridine-6-carboxylic acid] | 541.12% | 734 nM | 289.83% | 829 nM
22 | CC(C)c1nn(-c2cccc(N(C)C)c2)c2nc(C(=O)O)cc(-c3ccc(N4CCOCC4)nc3)c12 [compound 85, 1-[3-(dimethylamino)phenyl]-4-[6-(morpholin-4-yl)pyridin-3-yl]-3-(propan-2-yl)-1H-pyrazolo[3,4-b]pyridine-6-carboxylic acid] | 504.7% | 702 nM | 314.6% | 920 nM
23 | COC(=O)N1CC(c2nn(-c3ccccc3)c3nc(C(=O)O)cc(-c4ccc(N5CCOCC5)cc4)c23)C1 [compound 86, 3-[1-(methoxycarbonyl)azetidin-3-yl]-4-[4-(morpholin-4-yl)phenyl]-1-phenyl-1H-pyrazolo[3,4-b]pyridine-6-carboxylic acid] | 300.25% | 2550 nM | 129.75% | 3340 nM
24 | CN(C)Cc1nn(-c2ccccc2)c2nc(C(=O)O)cc(-c3ccc(N4CCOCC4)cc3)c12 [compound 87, 3-[(dimethylamino)methyl]-4-[4-(morpholin-4-yl)phenyl]-1-phenyl-1H-pyrazolo[3,4-b]pyridine-6-carboxylic acid] | 148.9% | 3340 nM | 28.91% | > 10000 nM
